The values below come from patent publication US20040152904A1, “Delta1 pyrrolines” (priority 2001, published 2004).

Read-outs that look alike come from different tables or passages of the source.

Data set [1] can be described thus: logP by HPLC (EEC Directive 79/831 Annex V.A8, reversed-phase C 18). Particulars: reversed-phase HPLC column (C 18). In kind it is physicochemical. The method, then: The stated logP values were determined in accordance with EEC Directive 79/831 Annex V.A8 by HPLC (High Performance Liquid Chromatography) using a reversed-phase column (C 18). Temperature: 43° C.
In the acidic range, the determination was carried out at pH 2.3 using the mobile phases 0.1% aqueous phosphoric acid and acetonitrile; linear gradient from 10% acetonitrile to 90% acetonitrile.
In the neutral range, the determination was carried out at pH 7.5 using the mobile phases 0.01 molar aqueous phosphate buffer solution and acetonitrile; linear gradient from 10% acetonitrile to 90% acetonitrile.
Calibration was carried out using unbranched alkan-2-ones (having 3 to 16 carbon atoms) with known logP values (determination of the logP values by the retention times using linear interpolation between two successive alkanones).

In data set [2] the test system is Heliothis virescens caterpillars. The data set is described as follows: Heliothis virescens test. The data set is classed as in vivo. To be noted: 40 ppm active compound, soyabean shoots dipped. The method, then:
(§1) Heliothis virescens Test Solvent: 30 parts by weight of dimethylformamide Emulsifier: 1 part by weight of alkylaryl polyglycol ether To produce a suitable preparation of active compound, 1 part by weight of active compound is mixed with the stated amounts of solvent and emulsifier, and the concentrate is diluted with emulsifier-containing water to the desired concentration. Soyabean shoots (Glycine max) are treated by being dipped into the preparation of active compound of the desired concentration and are populated with Heliothis virescens caterpillars whilst the leaves are still moist. After the desired period of time, the kill in % is determined. 100% means that all caterpillars have been killed; 0% means that none of the caterpillars have been killed.

In data set [3] the test system is Amblyomma variegatum or A. hebraeum, nymphs which have sucked themselves full. The data set is described as follows: Nymphecdysis test on polyphagous ticks. In kind it is in vivo. To be noted: for Effect on ecdysis in % after 48h: 100 ppm active compound, nymphs immersed for 1 minute; for activity in the nymphecdysis test: in vivo. As for the experimental part: Nymphecdysis Test on Polyphagous Ticks
Test animals: Amblyomma variegatum or A. hebraeum, nymphs which have sucked themselves full
Solvent: Dimethyl sulphoxide
20 mg of active compound are dissolved in 1 ml of dimethyl sulphoxide, more dilute concentrations are prepared by dilution with distilled water.
10 nymphs which have sucked themselves full are immersed for 1 minute into the preparation of active compound to be tested. The animals are transferred to petri dishes (∅ 9.5 cm) fitted with filter discs and covered. […]
100% means that none of the animals have undergone normal ecdysis. 0% means that all animals have undergone ecdysis.
In this test, for example, the compounds 4 and 5 of the preparation examples show good activity.

The test system of data set [4] is larvae of the mustard beetle (Phaedon cochleariae). The data set is described as follows: Phaedon larvae test. Particulars: 1000 ppm active compound, cabbage leaves dipped. In kind it is in vivo. The method, then: as §1, with “Phaedon larvae” for “Heliothis virescens”, “Cabbage leaves (Brassica oleracea)” for “Soyabean shoots (Glycine max)”, “larvae of the mustard beetle (Phaedon cochleariae)” for “Heliothis virescens caterpillars”, “beetle larvae” for “caterpillars”

The test system of data set [5] is army worm (Spodoptera frugiperda) caterpillars. Kind of data set: Spodoptera frugiperda test. The data set is classed as in vivo. To be noted: 1000 ppm active compound, cabbage leaves dipped. As for the experimental part: as §1, with “Spodoptera frugiperda Test” for “Heliothis virescens Test”, “concentration. Cabbage leaves (Brassica oleracea)” for “concentration. Soyabean shoots (Glycine max)”, “with army worm (Spodoptera frugiperda)” for “with Heliothis virescens”

Data set [6] concerns greenhouse red spider mite (tetranychus urticae). Kind of data set: Tetranychus test (OP-resistant/dip treatment). In kind it is in vivo. To be noted: 100 ppm active compound, bean plants dipped. The method, then:
Tetranychus Test (OP-Resistant/Dip Treatment)
Solvent: 30 parts by weight of dimethylformamide
Emulsifier: 1 part by weight of alkylaryl polyglycol ether
To produce a suitable preparation of active compound, 1 part by weight of active compound is mixed with the stated amounts of solvent and emulsifier, and the. concentrate is diluted with emulsifier-containing water to the. desired concentration.
Bean plants (Phaseolus vulgaris) which are heavily infested by all stages of the greenhouse red spider mite (tetranychus urticae) are dipped into a preparation of active compound of the desired concentration.
After the desired period of time, the effect in % is determined. 100% means that all spider mites have been killed; 0% means that none of the spider mites have been killed.

[7] abbreviates: pH 2.3, 0.1% aqueous phosphoric acid / acetonitrile, 43° C., read-out: logP (pH 2.3).
Where [8] appears, read: pH not printed at the place, read-out: logP.

With `Fc1cccc(F)c1C1=NC(c2ccc(-c3nn[nH]n3)cc2)CC1` (centres unmarked) [I-a-1], the chromatographic logP in data set [1] (setting [7]) worked out at 1.28.

For the molecule `CC(C)(C)n1nnc(-c2ccc(-c3ccc(C4CCC(c5c(F)cccc5F)=N4)cc3)cc2)n1` (centres unmarked) [drawing 54], the “Kill rate in % after 6d” value in data set [2] stood at 100%.

In the case of `CCn1nnc(-c2ccc(-c3ccc(C4CCC(c5c(F)cccc5F)=N4)cc3)cc2)n1` (centres unmarked) [drawing 73], in data set [3], the “Effect on ecdysis in % after 48h” value is listed as 100%. For the molecule `CC(C)(C)n1nnc(-c2ccc(-c3ccc(C4CCC(c5c(F)cccc5F)=N4)cc3)cc2)n1` (centres unmarked) [drawing 56], in data set [4], the “Kill rate in % after 7d” value was found to be 100%. In the case of `N#Cc1ccc(-c2ccc(C3CCC(c4c(F)cccc4F)=N3)cc2)cc1` (centres unmarked) [VIII-2, 4′-[5-(2,6-difluorophenyl)-3,4-dihydro-2H-pyrrol-2-yl]-1,1′-biphenyl-4carbonitrile], the melting point is 123 °C. Besides, in data set [1] (setting [7]), the chromatographic logP stood at 2.84.

As for `CCCn1nnc(-c2ccc(C3CCC(c4c(F)cccc4F)=N3)cc2)n1` (centres unmarked) [drawing 57], the “Kill rate in % after 7d” value in data set [4] turned out to be 100%. Take `CC(C)(C)OC(=O)N1C(=O)CCC1c1ccc(C#N)cc1` (centres unmarked) [XI-1, tert-butyl-2-(4-cyanophenyl)-5-oxo-1-pyrrolidinecarboxylate]: the chromatographic logP in data set [1] (setting [7]) amounted to 2.12. As for `CCn1nnc(-c2ccc(-c3ccc(C4CCC(c5c(F)cccc5F)=N4)cc3)cc2)n1` (centres unmarked) [drawing 65], the “Kill rate in % after 7d” value in data set [5] came to 100%. `CC(C)(C)OC(=O)N1C(=O)CCC1c1ccc(-c2ccc(C#N)cc2)cc1` (centres unmarked) [XI-2, tert-butyl 2(4′-cyano-1,1′-biphenyl-4-yl)-5-oxo-1-pyrrolidinecarboxylate] had a melting point of 152 °C. Moreover, the chromatographic logP in data set [1] (setting [7]) stood at 3.03.

On to `N#Cc1ccc(-c2ccccc2C2CCC(=O)N2)cc1` (centres unmarked) [2′-(5-oxo-2-pyrrolidinyl)-1,1′-biphenyl-4carbonitrile], for which the chromatographic logP in data set [1] (setting [7]) came to 1.94.

Turning to `CCOCn1nnc(-c2ccc(Br)cc2)n1` [VII-2, 2-ethoxymethyl-5-(4-bromo-phcnyl)-1(2)H tetrazole], in data set [1] (setting [7]), the chromatographic logP came out at 3.42. In the case of `CCCn1nnc(-c2ccc(C3CCC(c4c(F)cccc4F)=N3)cc2)n1` (centres unmarked) [drawing 64], the “Kill rate in % after 7d” value in data set [5] came out at 100%. With `CCOCn1nnc(-c2ccc(-c3ccc(C4CCC(c5c(F)cccc5F)=N4)cc3)cc2)n1` (centres unmarked) [drawing 74], the “Effect on ecdysis in % after 48h” value in data set [3] stood at 100%. As for `CC(C)(C)n1nnc(-c2ccc(B(O)O)cc2)n1` [Example V-1, 4-[(2-tert-butyl)-2H-tetrazol-5-yl]phenylboronic acid], the chromatographic logP in data set [1] (setting [7]) was found to be 2.01. Take `CCOCn1nnc(-c2ccc(-c3ccc(C4CCC(c5c(F)cccc5F)=N4)cc3)cc2)n1` (centres unmarked) [drawing 70]: the “Kill rate in % after 7d” value in data set [6] is given as 98%. `CC(C)(C)n1nnc(-c2ccc(-c3ccc(C4CCC(c5c(F)cccc5F)=N4)cc3)cc2)n1` (centres unmarked) [Example 3, 2-tert-butyl-5-{4′-[5-(2,6-difluorophenyl)-3,4dihydro-2H-pyrrol-2-yl]-1′-biphenyl-4-yl}-2H-tetrazole]: in data set [1] (setting [8]), the chromatographic logP came out at 4.14. As to `CC(C)(C)n1nnc(-c2ccc(-c3ccc(C4CCC(c5c(F)cccc5F)=N4)cc3)cc2)n1` (centres unmarked) [Example 2, 2-tert-butyl-5-{4′-[5-(2,6-difluorophenyl)-3,4dihydro-2H-pyrrol-2-yl]-1,1′-biphenyl-4-yl}-2H-tetrazole], the melting point came out at 96 °C. Also, the chromatographic logP in data set [1] (setting [7]) worked out at 4.14. For `CCn1nnc(-c2ccc(-c3ccc(C4CCC(c5c(F)cccc5F)=N4)cc3)cc2)n1` (centres unmarked) [drawing 58], the “Kill rate in % after 7d” value in data set [4] is recorded as 100%.

With `OB(O)c1ccc(-c2nn[nH]n2)cc1` [Example V-2, 4-(2H-tetrazol-5-yl)-phenylboronic acid], the chromatographic logP in data set [1] (setting [7]) stood at 0.19. Turning to `CCn1nnc(-c2ccc(-c3ccc(C4CCC(c5c(F)cccc5F)=N4)cc3)cc2)n1` (centres unmarked) [drawing 55], in data set [2], the “Kill rate in % after 6d” value is given as 100%.

`N#Cc1ccc(C2CCC(=O)N2)cc1` (centres unmarked) [XIII-a-1, 4-(5-oxo-2-pyrrolidinyl)benzonitrile] gave a melting point of 155 °C. The chromatographic logP in data set [1] (setting [7]) was found to be 0.96. As for `CCCn1nnc(-c2ccc(C3CCC(c4c(F)cccc4F)=N3)cc2)n1` (centres unmarked) [Example 1], the chromatographic logP in data set [1] (setting [7]) came to 2.61. On the same count and under the same terms, for `CC(C)(C)n1nnc(-c2ccc(Br)cc2)n1` [VII-1, 2-tert-butyl-5-(4-bromo-phenyl)-1(2)H-tetrazole] the value was 4.23. For `CCOCn1nnc(-c2ccc(-c3ccc(C4CCC(c5c(F)cccc5F)=N4)cc3)cc2)n1` (centres unmarked) [drawing 59], the “Kill rate in % after 7d” value in data set [4] turned out to be 100%. Consider `CCn1nnc(-c2ccc(Br)cc2)n1` [VII-3, 2-ethyl-5-(4-bromo-phenyl)-1(2)H-tetrazole], for which the chromatographic logP in data set [1] (setting [7]) was 3.2. For `CCn1nnc(-c2ccc(-c3ccc(C4CCC(c5c(F)cccc5F)=N4)cc3)cc2)n1` (centres unmarked) [Example 5, 5-{4′-[5-(2,6-difluorophenyl)-3,4-dihydro-2Hpyrrol-2-yl]-1,1′-biphenyl-4-yl}-2-ethyl-2H-tetrazole], in data set [1] (setting [7]), the chromatographic logP was 3.21. Moreover, the “activity in the nymphecdysis test” value in data set [3] is on record as “good activity”.

With `N#Cc1ccc(-c2ccc(C3CCC(=O)N3)cc2)cc1` (centres unmarked) [XIII-b-1, 4′-(5-oxo-2-pyrrolidinyl)-1,1′-biphenyl-4carbonitrile], in data set [1] (setting [7]), the chromatographic logP is 1.92. As for `CCOCn1nnc(-c2ccc(-c3ccc(C4CCC(c5c(F)cccc5F)=N4)cc3)cc2)n1` (centres unmarked) [drawing 66], the “Kill rate in % after 7d” value in data set [5] was 100%. Turning to `CCCn1nnc(-c2ccc(C3CCC(c4c(F)cccc4F)=N3)cc2)n1` (centres unmarked) [drawing 68], the “Kill rate in % after 7d” value in data set [6] came to 90%. On to `CC(C)(C)n1nnc(-c2ccc(-c3ccc(C4CCC(c5c(F)cccc5F)=N4)cc3)cc2)n1` (centres unmarked) [drawing 63], for which, in data set [5], the “Kill rate in % after 7d” value worked out at 100%. As to `CCOCn1nnc(-c2ccc(-c3ccc(C4CCC(c5c(F)cccc5F)=N4)cc3)cc2)n1` (centres unmarked) [Example 4, 5-{4′-[5-(2,6-difluorophenyl)-3,4-dihydro-2H-pyrrol-2-yl]-1,1′-biphenyl-4-yl}-2-(ethoxymethyl)-2H-tetrazole], the chromatographic logP in data set [1] (setting [8]) was 3.4. The “activity in the nymphecdysis test” value in data set [3] is “good activity”. On to `CCn1nnc(-c2ccc(-c3ccc(C4CCC(c5c(F)cccc5F)=N4)cc3)cc2)n1` (centres unmarked) [drawing 69], for which the “Kill rate in % after 7d” value in data set [6] came out at 98%. `N#Cc1ccc(C2CCC(c3c(F)cccc3F)=N2)cc1` (centres unmarked) [VIII-1, 4-[5-(2,6-difluorophenyl)-3,4-dihydro-2Hpyrrol-2-yl]benzonitrile]: the melting point amounted to 57 °C. Further, in data set [1] (setting [7]), the chromatographic logP was 2.11.

Regarding `CC(C)(C)n1nnc(-c2ccc(-c3ccc(C4CCC(c5c(F)cccc5F)=N4)cc3)cc2)n1` (centres unmarked) [drawing 67], the “Kill rate in % after 7d” value in data set [6] came to 98%.
